Test results as given in patent US20250214925A1, “CATIONIC LIPID, LIPOSOME, LIPID NANOPARTICLE, AND USE” (CARCELL BIOPHARMA LTD., priority 2022, published 2025).

Legend:
mice [1] = assay: In vivo delivery of Ffluc mRNA LNP in mice, intravenous administration, luminescence relative to MC3; set-up: species or system mice (female Balb/C); conditions: fold change in luminescence intensity relative to MC3; 0.06 mg/kg tail vein; 6 h after injection
Procedure, shortened: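 Female Balb/C mice (18-22 g, 6-8 weeks, n=5) received Ffluc mRNA LNP at 0.06 mg/kg by tail vein in 50 mM TBS pH 7.4. Six hours later, intraperitoneal D-luciferin was given and whole-body luminescence imaged, with each lipid reported as fold change relative to MC3 LNP.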

mice [2] = assay: In vivo delivery of Ffluc mRNA LNP in mice, intramuscular administration, luminescence relative to MC3; set-up: species or system mice (female Balb/C); conditions: fold change in luminescence intensity relative to MC3; 50 μL of 0.1 mg/mL mRNA LNP into right thigh; 6 h after injection
Description: The prepared encapsulation solution was applied to mice in the following manner, and its delivery efficiency in mice was tested. Among them, DLin-MC3-DMA (MC3) was a cationic liposome for delivering small nucleic acids that was approved by the FDA for marketing in 2018, which has high nucleic acid drug delivery efficiency and biosafety, and was usually used as the industry gold standard in the screening process of cationic lipids. In the evaluation of mice experiments, the ratio of nucleic acid delivery efficiency normalized to MC3 was greater than 0.1, which was considered to be a cationic lipid with high delivery efficiency.
The LNP solution was diluted with 50 mM TBS, pH 7.4 to a concentration of 0.1 mg/mL mRNA.
2. The mice involved in this study were female Balb/C, weighing 18-22 g, 6-8 weeks old, with 5 mice in each group.
3. The dosing solution was kept at 4° C. prior to injection.
4. 50 μL of LNP solution was injected into the right thigh of the mice.
5. The mice were injected intraperitoneally with 200 μL of 1.5 mg/mL D-luciferin solution 6 h after injection.
6. The in vivo luminescence images of the mice were obtained using the IVIS system (Aniview).
7. The luminescence intensity of each mice was measured using Aniview software.
8. MC3 lipid nanoparticles were used as a positive control. The in vivo efficacy of each cationic lipid tested was recorded as the fold change in luminescence intensity relative to MC3 (ratio normalized to MC3).

[3] = LNP size and PDI by dynamic laser light scattering; assay type: physicochemical; conditions: LNP: 50% cationic lipid, 38.5% cholesterol, 10% DSPC, 1.5% DMG-PEG2000; Ffluc mRNA
Procedure, shortened: (§1)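 LNPs of cationic lipid/cholesterol/DSPC/DMG-PEG2000 at 50/38.5/10/1.5 mol% in ethanol, mixed with Ffluc mRNA at 0.2 mg/mL in 10 mM pH 4.0 citrate via T-mixer at 40 mL/min. Dialyzed overnight against 50 mM Tris-buffered saline pH 7.4 and sieved; PDI by dynamic light scattering, encapsulation by Ribogreen.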

[4] = mRNA encapsulation efficiency of LNP by Ribogreen assay; assay type: physicochemical; conditions: LNP: 50% cationic lipid, 38.5% cholesterol, 10% DSPC, 1.5% DMG-PEG2000; Ffluc mRNA
Procedure, shortened: as §1

Structure (SMILES) | PDI [3] | Size (nm) [3] [nm] | Encapsulation Rate [4] [%] | In Vivo Efficacy Normalized To Mc3 In Mice (Intravenous Injection) (mice [1]) | In Vivo Efficacy Normalized To Mc3 In Mice (Intramuscular Injection) (mice [2])
CCCCCCCCCC/C(=C/C(=O)OCCCCCCN(CCCO)CCCCCCOC(=O)/C=C(\CCCCCCCC)CCCCCCCCCC)CCCCCCCC [CPL-079, ((3-hydroxypropyl)azanediyl)bis(hexane-6,1-diyl) (2E,2′E)-bis(3-octyltridec-2-enoate)] | 0.1557 | 94.46 | 94 | 4.95 | 1.30
CCCCCCCCCC/C(=C\C(=O)OCCCCCCCN(CCCO)CCCCCCCOC(=O)/C=C(/CCCCCCCC)CCCCCCCCCC)CCCCCCCC [CPL-101, ((3-hydroxypropyl)azanediyl)bis(heptane-7,1-diyl)(2Z,2′Z)-bis(3-octyltridec-2-enoate)] | 0.0791 | 69.38 | 95 | 2.90 | 1.76
CCCCCCCCCC/C(=C\C(=O)OCCCCCCN(CCCO)CCCCCCOC(=O)/C=C(/CCCCC)CCCCCCCCCC)CCCCC [CPL-070, ((3-hydroxypropyl)azanediyl)bis(hexane-6,1-diyl) (2Z,2′Z)-bis(3-pentyltridec-2-enoate)] | 0.2173 | 100.4 | 95 | 3.74 | 1.85
CCCCCCC/C(=C/C(=O)OCCCCCCN(CCCO)CCCCCCOC(=O)/C=C(\CCCC)CCCCCCC)CCCC [CPL-074, ((3-hydroxypropyl)azanediyl)bis(hexane-6,1-diyl) (2E,2′E)-bis(3-butyldec-2-enoate)] | 0.3691 | 95.7 | 99 | 2.40 | 7.93

Further lines, with some results ahead:

PDI [3] | Size (nm) [3] [nm] | Encapsulation Rate [4] [%] | Structure (SMILES) | In Vivo Efficacy Normalized To Mc3 In Mice (Intravenous Injection) (mice [1]) | In Vivo Efficacy Normalized To Mc3 In Mice (Intramuscular Injection) (mice [2])
0.078 | 73 | 90 | CCCCCC/C(=C/C(=O)OCCCCCCCCN(CCCCO)CCCCCCCCOC(=O)/C=C(\CCCC)CCCCCC)CCCC [CPL-457-01, ((4-hydroxybutyl)azanediyl)bis(octane-8,1-diyl) (2E,2′E)-bis(3-butylnon-2-enoate)] | 5.49 | 12.13
0.21 | 98.6 | 97 | CCCCCCCCCC/C(=C/C(=O)OCCCCCCCN(CCCO)CCCCCCCOC(=O)/C=C(\CCCCC)CCCCCCCCCC)CCCCC [CPL-092-01, ((3-hydroxypropyl)azanediyl)di(heptane-7,1-diyl) (2E,2′E)-di(3-pentyltridec-2-enoate)] | 8.96 | 2.20
0.18 | 112 | 97 | CCCCCC/C(=C/C(=O)OCCCCCCCCCCCN(CCCO)CCCCCCCCCCCOC(=O)/C=C(\CCCC)CCCCCC)CCCC [CPL-174-01, ((3-hydroxypropyl)azanediyl)bis(undecane-11,1-diyl) (2E,2′E)-bis(3-butylnon-2-enoate)] | 2.32 | 1.20
0.0569 | 80.25 | 97 | CCCCC/C(=C/C(=O)OCCCCCCCCCN(CCCO)CCCCCCCCCOC(=O)/C=C(\CCCC)CCCCC)CCCC [CPL-133-01, ((3-hydroxypropyl)azanediyl)bis(nonane-9,1-diyl) (2E,2′E)-bis(3-butyloct-2-enoate)] | 3.54 | 6.61
0.05 | 72.18 | 95 | CCCCCC/C(=C\C(=O)OCCCCCCCCCCN(CCCO)CCCCCCCCCCOC(=O)/C=C(/CCCC)CCCCCC)CCCC [CPL-152, ((3-hydroxypropyl)azanediyl)bis(decane-10,1-diyl) (2Z,2′Z)-bis(3-butylnon-2-enoate)] | 2.03 | 2.62
